{"source": "patent US20240009209A1", "about": "“PROTEIN-BOUND CANNABINOID FORMULATIONS AND USES THEREOF” (YISSUM RESEARCH DEVELOPMENT COMPANY OF THE HEBREW …, priority 2020, published 2024)", "test": "Plasma CBD after IV administration", "format": "in vivo, BALB/C mice", "conditions": "mice, IV 12 mg/kg", "experimental": "A total of 18 female BALB/C mice aged 12 weeks were injected IV with a single dose of 12 mg/kg CBD formulation in cremophor:ethanol.\nAt the time-points detailed below, 3 mice were euthanized with CO2 and terminal blood was immediately collected from the retro-orbital sinus in labeled 0.5 ml K3 EDTA blood collection tubes (Mini Collect, Greiner-bio-one, Austria). The blood was centrifuged at 2000×g for 10 minutes before plasma was extracted, collected in labeled tubes and frozen at −20° C. immediately after collection. The samples were then stored at −80° C. pending analysis.\nTime-points for the blood collection: 2 min, 1, 4, 8, 24 and 48 h.\nCBD was extracted from plasma samples that were spiked with cannabigerol (CBG, 1 mg/ml in methanol, Sigma, Cat. C-141-1 Add lot) used as internal standard (IS) followed by dilution of the plasma five-fold in acetonitrile. After vigorous vortex it was centrifuged, and the upper phase was analyzed. Final IS concentration in the samples was 100 ng/ml.\nPlasma extracts were analyzed by LC/MS method (Sciex (Framingham, MA, USA) Triple Quad™ 5500 mass spectrometer coupled with a Shimadzu (Kyoto, Japan) UHPLC System). The concentrations were calculated based on a calibration curve of CBD in plasma at a range of 1-1,000 ng/ml having 100 ng/ml of Internal Standard (IS)."}
{"smiles": "C=C(C)[C@@H]1CCC(C)=C[C@H]1c1c(O)cc(CCCCC)cc1O", "note": "[free CBD, 2-[(1R,6R)-6-Isopropenyl-3-methylcyclohex-2-en1-yl]-5-pentylbenzene-1,3-diol]", "values": [{"measurement": "Plasma CBD Mean ± SD", "setting": "24 h", "result": "BLOD"}, {"measurement": "Plasma CBD Mean ± SD", "setting": "24 h, listed as CBD", "result": "below the limit of detection"}, {"measurement": "Plasma CBD Mean ± SD", "setting": "48 h", "result": "BLOD"}, {"measurement": "Plasma CBD Mean ± SD", "setting": "48 h, listed as CBD", "result": "below the limit of detection"}]}
